Legend:
[1] = system: CYP3A; test: In vitro metabolism studies, CYP3A induction and substrate; format: in vitro ADME
Excerpt: Therefore, investigators, at their discretion, may administer concomitant medications known to be metabolized by CYP3A4/5. Patients receiving such medications may require dose titration or increase of the concomitant drug. […] Investigators may, at their discretion, co-administer known inhibitors of CYP3A, but their duration should be kept as short as possible, and patients must be closely monitored.

[2] = system: IL-1β production in PMA-differentiated THP-1 cells; test: IL-1β production in PMA-differentiated THP-1 cells stimulated with gramicidin (hTHP-1 assay, 2% fetal bovine serum); format: cell-based; settings: Homo sapiens, hTHP-1 assay containing 2% fetal bovine serum
Description: THP-1 cells were purchased from the American Type Culture Collection and sub-cultured according to instructions from the supplier. Cells were cultured in complete RPMI 1640 (containing 10% heat inactivated FBS, penicillin (100 units/ml) and streptomycin (100 μg/ml)), and maintained in log phase prior to experimental setup. Prior to the experiment, compounds were dissolved in dimethyl sulfoxide (DMSO) to generate a 30 mM stock. The compound stock was first pre-diluted in DMSO to 3, 0.34, 0.042 and 0.0083 mM intermediate concentrations and subsequently spotted using Echo550 liquid handler into an empty 384-well assay plate to achieve desired final concentration (e.g. 100, 33, 11, 3.7, 1.2, 0.41, 0.14, 0.046, 0.015, 0.0051, 0.0017 μM). DMSO was backfilled in the plate to achieve a final DMSO assay concentration of 0.37%. The plate was then sealed and stored at room temperature until required.
THP-1 cells were treated with PMA (Phorbol 12-myristate 13-acetate) (20 ng/ml) for 16-18 hours. On the day of the experiment the media was removed and adherent cells were detached with trypsin for 5 minutes. Cells were then harvested, washed with complete RPMI 1640, spun down, and resuspended in RPMI 1640 (containing 2% heat inactivated FBS, penicillin (100 units/ml) and streptomycin (100 μg/ml). The cells were plated in the 384-well assay plate containing the spotted compounds at a density of 50,000 cells/well (final assay volume 50 μl). Cells were incubated with compounds for 1 hour and then stimulated with gramicidin (5 μM) (Enzo) for 2 hours. Plates were then centrifuged at 340 g for 5 min. Cell free supernatant (40 μL) was collected using a 96-channel PlateMaster (Gilson) and the production of IL-1β was evaluated by HTRF (cisbio). The plates were incubated for 18 h at 4° C. and read using the preset HTRF program (donor emission at 620 nm, acceptor emission at 668 nm) of the SpectraMax i3x spectrophotometer (Molecular Devices, software SoftMax 6). A vehicle only control and a dose titration of CRID3 (100-0.0017 μM) were run concurrently with each experiment. […]

[3] = First-in-human study: safety and tolerability in healthy subjects; format: in vivo
Excerpt: The study design comprised of 4 parts: single ascending dose (SAD; Part A), relative bioavailability of tablet formulations (Part B), multiple ascending dose (MAD; Part C), and relative bioavailability and food effect (Part D) (FIG. 2; RF=Reference Formulation (crystalline suspension); T2=Test Formulation 2 (crystalline tablet); T3=Test Formulation 3 (spray-dried dispersion suspension); T4=Test Formulation 4 (encapsulated crystalline tablet)). In each group of Parts A and C, 8 subjects were randomized in a 3:1 ratio to receive Compound IA (6 subjects) or matching placebo (2 subjects).
For Part A, eight cohorts of eight eligible subjects were enrolled. Each subject received a single oral dose of Compound IA (3, 10, 30, 100, 300 mg of crystalline suspension and 100, 300, 600 mg of spray-dried dispersion (SDD) under fasted conditions. As this was a FIH study, two sentinel subjects were dosed first, at least 24 hours before the rest of the cohort was dosed, to assure maximum safety. Part B was skipped because the data from Part A provided for an adequate comparison of crystalline and SDD formulations.
For part C, eligible subjects were enrolled in six different cohorts. […] Subjects were dosed in Part C following review available safety, tolerability and PK data from preceding groups in Part A.
Safety assessments in all parts of the study included adverse event (AE) reporting using the Medical Dictionary for Regulatory Activities (version 22.1), clinical laboratory tests (biochemistry, hematology, and urinalysis), vital signs, electrocardiograms (ECGs), physical examination and skin biopsy (as applicable).

With `CC(C)(O)c1ncc([S@](N)(=O)=NC(=O)Nc2c3c(cc4c2CCC4)CCC3)s1` [Compound IA, (R)-N′-((1,2,3,5,6,7-hexahydro-s-indacen-4-yl)carbamoyl)-2-(2-hydroxypropan-2-yl) thiazole-5-sulfonimidamide] the CYP3A substrate status [1] was “substrate of CYP3A”, the “induction of metabolism of CYP3A substrates” value [1] was “might have the potential to induce” and the IC50 [2] was 8 to 40 nM. For the same compound, the “subjects with TEAEs considered related to study drug” value ([3]; 21/94 who received Compound IA) was 22%, the “subjects reporting treatment emergent adverse events (TEAEs)” value ([3]; Compound IA arm, 66/94 subjects) was 70% and the skin rash ([3]; dosed once daily with 30, 100, and 200 mg) was “skin rashes have been observed in some participants”. The “dose relation of maculopapular and/or pruritic skin rashes” value ([3]; human, in vivo) was “most frequently reported at the higher multiple dose levels”, the “intensity of skin rash/pruritus TEAEs” value ([3]; human, in vivo) was “mild to moderate” and the “subjects with mild, non-clinically significant decrease in neutrophil and leukocyte counts” value ([3]; human, in vivo) was 27 subjects. For the same compound, the “vital signs, 12-lead ECG, 24-hour Holter monitoring, physical examination” value ([3]; human, in vivo) was “No other clinically relevant findings”, the “subjects with skin rash and/or pruritus” value ([3]; multiple dose 30 mg QD) was 2 n and the “subjects with skin rash and/or pruritus” value ([3]; multiple dose 50 mg BID) was 3 n. For the same compound, the “subjects with skin rash and/or pruritus” value ([3]; multiple dose 100 mg QD) was 3 n, the “subjects with skin rash and/or pruritus” value ([3]; multiple dose 200 mg QD) was 2 n and the “neutrophil and leukocyte counts” value ([3]; non-clinically significant, occasionally noted) was “Mild decreases”. For the same compound, the “subjects with TEAEs of maculopapular skin rash and/or pruritus (adverse events of special interest)” value ([3]; of 122 enrolled, all received Compound IA) was 12 subjects, the tolerability ([3]; single and multiple oral doses, healthy subjects) was “generally well tolerated” and the “subjects with skin rash and/or pruritus” value ([3]; single dose 100 mg) was 1 n. The “subjects with skin rash and/or pruritus” value ([3]; single dose 600 mg) was 1 n and the “deaths or serious adverse events” value ([3]; whole study) was “No deaths or serious adverse events (SAEs) were reported”.

Source: patent US20250082611A1, “DOSING REGIMEN FOR AN NLRP3 INHIBITOR IN THE TREATMENT OF OSTEOARTHRITIS” (Novartis AG, priority 2021, published 2025)
